Patent US4221811A, “Antifungal and/or antibacterial organotin compounds, and use” (priority 1977, dated 1980)

Tests used:
bacteria = experiment: Antibacterial activity; format: cell-based
Excerpt: (§1) Antibacterial activity of organotin compounds. Minimal concentration
(§2) causing complete inhibition of visible growth (MIC; after three days).
(§3) Test medium: peptone-glucose agar; pH ~ 6.9-7.0.

fungi = experiment: Antifungal activity; format: cell-based
Excerpt: (§4) Antifungal activity of organotin compounds. Minimal concentra-
(§5) tion (mg/l) causing complete inhibition of visible growth (MIC;
(§6) after three days). -Test medium: glucose-agar; pH~6.9-7.0.

S. lactis = format: cell-based; settings: S. lactis (Gram-pos.); after three days; peptone-glucose agar; pH ~ 6.9-7.0
Excerpt: as §1, §2, §3

E. coli = format: cell-based; settings: E. coli (Gram-neg.); after three days; peptone-glucose agar; pH ~ 6.9-7.0
Excerpt: as §1, §2, §3

P. fluorescens = format: cell-based; settings: P. fluorescens (Gram-neg.); after three days; peptone-glucose agar; pH ~ 6.9-7.0
Excerpt: as §1, §2, §3

B. subtilis = format: cell-based; settings: B. subtilis (Gram-pos.); after three days; peptone-glucose agar; pH ~ 6.9-7.0
Excerpt: as §1, §2, §3

Aspergillus niger = format: cell-based; settings: after three days, glucose-agar, pH~6.9-7.0
Excerpt: as §4, §5, §6

Cladosporium cucumerinum = format: cell-based; settings: after three days, glucose-agar, pH~6.9-7.0
Excerpt: as §4, §5, §6

Botrytis allii = format: cell-based; settings: after three days, glucose-agar, pH~6.9-7.0
Excerpt: as §4, §5, §6

Penicillium italicum = format: cell-based; settings: after three days, glucose-agar, pH~6.9-7.0
Excerpt: as §4, §5, §6

physchem = settings: water

SMILES: CC[CH2][Sn]([CH2]CC)([CH2]CC)[CH2]Cc1ccncc1 [tripropyl-[3-(4-pyridyl)ethyl]tin]
- antibacterial activity (in words) (bacteria): high antifungal as well as antibacterial activity
- antifungal activity (in words) (fungi): high antifungal as well as antibacterial activity

SMILES: CCC[CH2][Sn]([CH2]CCC)([CH2]CCC)[CH2]CC(=O)OC [Bu3 Sn(CH2)2 COOMe, tributyl-(3-carbomethoxyethyl)tin]
- Minimal concentration causing complete inhibition of visible growth (MIC) (S. lactis): 30 mg/L
- Minimal concentration causing complete inhibition of visible growth (MIC) (E. coli): 100 mg/L
- Minimal concentration causing complete inhibition of visible growth (MIC) (P. fluorescens): > 1000 mg/L
- Minimal concentration causing complete inhibition of visible growth (MIC) (B. subtilis): 30 mg/L
- Minimal concentration causing complete inhibition of visible growth (MIC) (Aspergillus niger): 5 mg/L
- Minimal concentration causing complete inhibition of visible growth (MIC) (Cladosporium cucumerinum): 1 mg/L
- Minimal concentration causing complete inhibition of visible growth (MIC) (Botrytis allii): 0.5 mg/L
- Minimal concentration causing complete inhibition of visible growth (MIC) (Penicillium italicum): 1 mg/L
- antibacterial activity (in words) (bacteria): high antifungal and antibacterial activity
- antifungal activity (in words) (fungi): high antifungal and antibacterial activity

SMILES: CCC[CH2][Sn]([CH2]CCC)([CH2]CCC)[CH2]CCN(C)C [Bu3 Sn(CH2)3 NMe2, (3-dimethylaminopropyl)tributyltin]
- solubility (physchem): ~20 mg/mL

SMILES: CCC[CH2][Sn]([CH3])([CH2]CCC)[CH2]CCNCCCN(C)C.Cl.Cl [MeBu2 Sn(CH2)3 NH(CH2)3 NMe2 . 2]
- Minimal concentration causing complete inhibition of visible growth (MIC) (S. lactis): 3 mg/L
- Minimal concentration causing complete inhibition of visible growth (MIC) (E. coli): 3 mg/L
- Minimal concentration causing complete inhibition of visible growth (MIC) (P. fluorescens): 3 mg/L
- Minimal concentration causing complete inhibition of visible growth (MIC) (B. subtilis): 3 mg/L
- Minimal concentration causing complete inhibition of visible growth (MIC) (Aspergillus niger): 100 mg/L
- Minimal concentration causing complete inhibition of visible growth (MIC) (Cladosporium cucumerinum): 20 mg/L
- Minimal concentration causing complete inhibition of visible growth (MIC) (Botrytis allii): ≤ 10 mg/L
- Minimal concentration causing complete inhibition of visible growth (MIC) (Penicillium italicum): ≤ 10 mg/L
- solubility in water: 50%
